Experimental data taken from ChEMBL document CHEMBL6092125, “Synthesis and biological evaluation of novel aminoquinolines with an n-octyl linker: Impact of halogen substituents on C(7) or a terminal amino group on anticholinesterase and BACE1 activity” (Bioorg Med Chem Lett, 2024).
Calls of active or inactive are those of the source. The rule behind the calls is not given here.

Columns and labels:
[1] = biological target: T1, Acetylcholinesterase (Homo sapiens, UniProt P22303); test: Non-competitive inhibition of recombinant human AChE by DTNB reagent based Ellman's method
T1 sequence (P22303 whole entry): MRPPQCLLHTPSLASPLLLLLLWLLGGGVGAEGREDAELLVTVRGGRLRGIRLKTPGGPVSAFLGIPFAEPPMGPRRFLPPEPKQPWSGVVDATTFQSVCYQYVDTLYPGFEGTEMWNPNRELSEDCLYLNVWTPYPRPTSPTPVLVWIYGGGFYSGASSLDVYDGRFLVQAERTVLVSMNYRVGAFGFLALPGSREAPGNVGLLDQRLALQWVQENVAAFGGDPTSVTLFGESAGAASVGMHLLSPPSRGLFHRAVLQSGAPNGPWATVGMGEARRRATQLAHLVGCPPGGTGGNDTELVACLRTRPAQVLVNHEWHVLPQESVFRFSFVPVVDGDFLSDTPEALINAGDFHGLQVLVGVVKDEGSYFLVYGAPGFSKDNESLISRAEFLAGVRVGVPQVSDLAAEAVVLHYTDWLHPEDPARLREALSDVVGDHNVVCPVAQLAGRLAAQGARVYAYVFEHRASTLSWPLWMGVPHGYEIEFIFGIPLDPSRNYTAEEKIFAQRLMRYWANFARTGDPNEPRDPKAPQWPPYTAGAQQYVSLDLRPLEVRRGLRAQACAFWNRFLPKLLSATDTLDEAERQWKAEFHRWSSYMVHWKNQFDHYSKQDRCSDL

[2] = biological target: T2, Cholinesterase (Homo sapiens, UniProt P06276); test: Competitive inhibition of recombinant human BChE by DTNB reagent based Ellman's method
T2 sequence (P06276 whole entry): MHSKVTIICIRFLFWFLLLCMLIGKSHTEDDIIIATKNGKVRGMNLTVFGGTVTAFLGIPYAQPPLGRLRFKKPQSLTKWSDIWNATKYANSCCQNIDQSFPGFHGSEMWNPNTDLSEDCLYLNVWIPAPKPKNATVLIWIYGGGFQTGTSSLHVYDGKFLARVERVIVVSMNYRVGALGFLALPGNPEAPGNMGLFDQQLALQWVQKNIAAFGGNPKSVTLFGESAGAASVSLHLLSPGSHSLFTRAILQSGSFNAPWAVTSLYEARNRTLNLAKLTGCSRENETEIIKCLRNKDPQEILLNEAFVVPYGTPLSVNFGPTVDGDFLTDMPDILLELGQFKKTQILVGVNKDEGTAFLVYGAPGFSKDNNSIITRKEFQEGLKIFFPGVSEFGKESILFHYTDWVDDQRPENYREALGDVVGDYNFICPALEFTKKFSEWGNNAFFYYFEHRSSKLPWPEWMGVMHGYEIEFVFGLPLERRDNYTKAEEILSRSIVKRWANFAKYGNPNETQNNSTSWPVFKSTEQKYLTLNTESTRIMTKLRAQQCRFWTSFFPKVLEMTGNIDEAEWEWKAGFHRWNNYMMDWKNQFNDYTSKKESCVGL

[3] = biological target: T2, Cholinesterase; test: Inhibition of recombinant human BChE by DTNB reagent based Ellman's method
[4] = biological target: T1, Acetylcholinesterase; test: Inhibition of recombinant human AChE by DTNB reagent based Ellman's method
[5] = biological target: T1, Acetylcholinesterase; test: Mixed type inhibition of recombinant human AChE by DTNB reagent based Ellman's method
[6] = tested on: SH-SY5Y; test: Cytotoxicity against human SH-SY5Y cells incubated for 24 hrs by MTS assay; assay type: functional, cell-based
[7] = tested on: HEK293; test: Cytotoxicity against HEK293 cells incubated for 24 hrs by MTS assay; assay type: functional, cell-based; details: Homo sapiens
[8] = biological target: T2, Cholinesterase; test: Mixed type inhibition of recombinant human BChE by DTNB reagent based Ellman's method
[9] = biological target: Beta-secretase 1 (Homo sapiens) (UniProt P56817); test: Inhibition of BACE1 (unknown origin) at 1 uM relative to control
Sequence of Beta-secretase 1 (Homo sapiens) (P56817 whole entry): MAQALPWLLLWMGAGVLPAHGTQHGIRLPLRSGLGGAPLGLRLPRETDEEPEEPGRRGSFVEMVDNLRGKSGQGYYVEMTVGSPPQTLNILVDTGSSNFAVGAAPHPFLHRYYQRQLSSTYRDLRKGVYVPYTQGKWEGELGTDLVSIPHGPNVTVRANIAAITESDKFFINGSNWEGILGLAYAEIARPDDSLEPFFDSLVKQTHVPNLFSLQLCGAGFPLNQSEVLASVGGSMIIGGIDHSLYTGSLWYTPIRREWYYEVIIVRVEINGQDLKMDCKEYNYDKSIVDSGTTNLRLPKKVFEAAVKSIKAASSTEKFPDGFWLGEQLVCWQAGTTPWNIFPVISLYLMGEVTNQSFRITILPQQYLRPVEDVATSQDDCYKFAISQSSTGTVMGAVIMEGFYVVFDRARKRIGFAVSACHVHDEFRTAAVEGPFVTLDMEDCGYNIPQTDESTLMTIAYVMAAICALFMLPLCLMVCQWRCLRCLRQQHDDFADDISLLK

[10] = biological target: T1, Acetylcholinesterase; test: Competitive inhibition of recombinant human AChE by DTNB reagent based Ellman's method
[11] = tested on: HepG2; test: Cytotoxicity against human HepG2 cells incubated for 24 hrs by MTS assay; assay type: functional, cell-based

| Compound | Ki [2] [nM] | Ki [3] [nM] | Ki [4] [nM] | Activity [6] | Activity [7] | inhibition [9] [%] | further results |
| --- | --- | --- | --- | --- | --- | --- | --- |
| CC(C)(C)c1ccc(NCCCCCCCCNc2ccnc3cc(C(F)(F)F)ccc23)cc1 | 71 | – | – | – | – | – | Ki [1]: 160 nM |
| Fc1cc(C(F)(F)F)ccc1CN(CCCCCCCCNc1ccnc2cc(Cl)ccc12)c1ccc(C(F)(F)F)cc1F | – | 1500 | 700 | – | – | – | – |
| FC(F)(F)c1ccc2c(NCCCCCCCCNc3ccccc3Cl)ccnc2c1 | 19 | – | – | Active | Active | – | Ki [5]: 13 nM |
| O=[N+]([O-])c1ccc(NCCCCCCCCNc2ccnc3cc(C(F)(F)F)ccc23)cc1 | – | – | – | – | – | > 5.6 | Ki [1]: 140 nM; Ki [8]: 36 nM |
| FC(F)(F)c1ccc2c(NCCCCCCCCNc3cc4ccccc4o3)ccnc2c1 | 49 | – | – | – | – | – | Ki [10]: 540 nM |
| Fc1ccc(CNCCCCCCCCNc2ccnc3cc(Cl)ccc23)c(F)c1 | – | 270 | 21 | Active | – | – | – |
| Fc1cccc(NCCCCCCCCNc2ccnc3cc(C(F)(F)F)ccc23)c1 | – | – | – | inactive | inactive | > 5.6 | Ki [5]: 7.1 nM; Ki [8]: 6.7 nM; Activity [11]: inactive |
| Fc1cc(C(F)(F)F)ccc1CNCCCCCCCCNc1ccnc2cc(Cl)ccc12 | – | 1100 | 150 | Active; Increase In Toxicity Compared To Parent Compound 1 | Active | – | – |
| FC(F)(F)c1ccc2c(NCCCCCCCCNc3ccccc3)ccnc2c1 | – | – | – | – | – | > 5.6 | Ki [1]: 8 nM; Ki [8]: 21 nM |
| FC(F)(F)c1ccc2c(NCCCCCCCCNc3ccc(Cl)cc3)ccnc2c1 | 21 | – | – | Active | Active | – | Ki [10]: 70 nM |
| FC(F)(F)c1ccc2c(NCCCCCCCCNc3cccc(Cl)c3)ccnc2c1 | – | – | – | Active | Active | > 5.6 | Ki [5]: 11 nM; Ki [8]: 5.9 nM |
| Fc1ccc(NCCCCCCCCNc2ccnc3cc(C(F)(F)F)ccc23)cc1 | 6.1 | – | – | – | – | – | Ki [1]: 12 nM |
| Fc1ccc(Br)c(CNCCCCCCCCNc2ccnc3cc(Cl)ccc23)c1 | – | 280 | 16 | – | – | – | – |
| Fc1ccc(Br)cc1CNCCCCCCCCNc1ccnc2cc(Cl)ccc12 | – | 220 | 24 | – | – | – | – |
| Fc1ccc(F)c(CNCCCCCCCCNc2ccnc3cc(Cl)ccc23)c1 | – | 41 | 8.2 | – | – | > 5.6 | – |
| FC(F)(F)c1ccc2c(NCCCCCCCCNc3ccncc3)ccnc2c1 | 1300 | – | – | – | – | > 5.6 | – |
| Fc1cc(Br)ccc1CNCCCCCCCCNc1ccnc2cc(Cl)ccc12 | – | 230 | 110 | Active; Increase In Toxicity Compared To Parent Compound 1 | – | – | – |
| Fc1cccc(CNCCCCCCCCNc2ccnc3cc(Cl)ccc23)c1 | – | 8.4 | 3.2 | – | – | – | – |
| FC(F)(F)c1ccc2c(NCCCCCCCCNc3cc4ccccc4s3)ccnc2c1 | 4.4 | – | – | Active | Active | > 5.6 | Ki [5]: 70 nM |
| Fc1ccc(F)c(CN(CCCCCCCCNc2ccnc3cc(Cl)ccc23)c2cc(F)ccc2F)c1 | – | 1300 | 260 | – | – | – | – |
| Cc1cc(F)c(CNCCCCCCCCNc2ccnc3cc(Cl)ccc23)cc1F | – | 620 | 120 | – | Active | – | – |
| Clc1ccc(CNCCCCCCCCNc2ccnc3cc(Cl)ccc23)c(Cl)c1 | – | 180 | 36 | Active; Increase In Toxicity Compared To Parent Compound 1 | – | – | – |
| FC(F)(F)c1ccc2c(NCCCCCCCCNC3NCCN3)ccnc2c1 | – | – | – | – | – | – | Ki [1]: 200 nM; Ki [8]: 190 nM |
